From US20250339551A1, “AN ANTIBODY-DRUG CONJUGATE HAVING TWO OR MORE DIFFERENT FUNCTIONAL SMALL MOLECULES FOR ENHANCED TREATMENT OF REFRACTORY DISEASES” (HANGZHOU SEEHE BIOTECHNOLOGY CO., LTD, priority 2023, published 2025) come the findings set out here.

The test system of one assay is C4-2B cell line. The format is cell-based. The settings on record: 120 hours incubation, MTT, n = DAR given with each label. The text has this:
The cell lines used in the cytotoxicity assays were: C4-2B Cells which was obtained from ATCC through license agreement with MD Anderson Cancer Center, Houston, TX, USA. 22RV1, A549, U87, NCI-N87, MKN-7, BxPC-3, JIMT-1, MDA-MB-231, SU86.86, SW1990, OVCAR-3, Calu-3, A431, AsPC-1, CFPAC-1, DMS53, HCC827 and NCI-H1975 cells were purchased from ATCC, Nanjing Cobioer and The Cell Bank of Shanghai Institute of Biochemistry and Cell Biology, and the others. C4-2B and PC-3-4H7 are both Steap1 and PSMA antigen high express cells, but medium expressed of both B7H3 and DLL3 antigens. 22RV1 is low express cells for Steap1, PSMA, B7H3 and DLL3 antigens. U87 is glioblastoma (GBM) cells, NCI-N87 and MKN-7 cell line are stable models of the gastric epithelium. A431 is human epidermoid carcinoma. JIM-1 is trastuzumab-resistant Her2 breast tumor cells. SU86.86, SW1990, CFPAC-1 and AsPC-1 are pancreatic cancer cell lines. OVCAR-3 is ovarian cancer cell lines. Calu-3, HCC827 and NCI-H1975 are a human lung adenocarcinoma. All these cells were grown according to the provider manuals. To run the assay, the cells (180 μl, 6000 cells) were added to each well in a 96-well plate and incubated for 24 hours at 37° C. with 5% CO2. Next, the cells were treated with test compounds (20 μl) at various concentrations in appropriate cell culture medium (total volume, 0.2 mL). The control wells contain cells and the medium but lack the test compounds. The plates were incubated for 120 hours at 37° C. with 5% CO2. MTT (5 mg/mL) was then added to the wells (20 μl) and the plates were incubated for 1.5 hr at 37° C. The medium was carefully removed and DMSO (180 μl) was added afterward. After it was shaken for 15 min, the absorbance was measured at 490 nm and 570 nm with a reference filter of 620 nm. The inhibition % was calculated according to the following equation: […]

Assay [1] concerns GUCY2C-9C9 colon cancer cells. Description: in vivo activity of anti GUCY2C ADCs (FIG. 15). The settings on record: anti GUCY2C antibody drug conjugates, DAR=4.0˜4.2, one time administration, 3.0 mg/Kg, over 20 days, compared with anti GUCY2C antibody-GGFG-Dxd.
In another assay the test system is PC-3 cells. Description: affinities against nature PC-3 cells (FIG. 10). The assay is classed as binding. The settings on record: PC-3 cells do not have either Steap1 or PSMA antigens.
The next assay has as its system PC-3-4G5 cells. Description: affinities against PC-3-4G5 cells (FIG. 9). The format is binding. The settings on record: PC-3-4G5 only express highly Steap1 antigens. An excerpt:
Since PC-3-4G5 only express highly Steap1 antigens, thus both prepared vandortuzumab and the vandortuzumab-C002 had the good affinity for PC-3-4G5 cells.

Another assay relates to PC-3-4B9 cells. Nature of the assay: affinities against PC-3-4B9 cells (FIG. 8). The format is binding. The settings on record: PC-3-4B9 only express highly PSMA antigens.
The subject of a further assay is C4-2B cells. Nature of the assay: affinities against C4-2B cells (FIG. 7). The assay is classed as binding. The settings on record: C4-2B cells highly express both Steap1 and PSMA antigens.

On to `CCc1c2c(nc3cc(F)c(NC(=O)CNC(=O)[C@H](C)NC(=O)[C@@H](NC(=O)[C@H](CCC(=O)NCCOCCOCCNC(=O)c4ccc(C(=O)NCCCCC(=O)NCCCC[C@H](NC(=O)N[C@@H](CCC(=O)O)C(=O)O)C(=O)O)cc4)NC(=O)CCCN4C(=O)CC(S)C4=O)C(C)C)cc13)-c1cc3c(c(=O)n1C2)COC(=O)[C@]3(O)CC` (stereo partly drawn) [C040], for which the IC50 in the assay with C4-2B cell line turned out to be 4.27 nM.

Consider `CC[C@@]1(O)C(=O)OCc2c1cc1n(c2=O)Cc2c-1nc1cc(F)c(C)c3c1c2[C@@H](NC(=O)OCC[N+](C)(C)Cc1ccc(NC(=O)[C@H](C)NC(=O)[C@@H](NC(=O)[C@H](CCC(=O)NCCOCCOCCNC(=O)c2ccc(C(=O)NCCCCC(=O)NCCCC[C@H](NC(=O)N[C@@H](CCC(=O)O)C(=O)O)C(=O)O)cc2)NC(=O)CCCN2C(=O)CC(S)C2=O)C(C)C)cc1)CC3` (stereo partly drawn) [C044], for which, in the assay with C4-2B cell line, the IC50 stood at 7.87 nM.

Consider `CC[C@@]1(O)C(=O)OCc2c1cc1n(c2=O)Cc2c-1nc1cc(F)c(C)c3c1c2[C@@H](NC(=O)OCC[N+](C)(C)Cc1ccc(NC(=O)[C@H](C)NC(=O)[C@@H](NC(=O)[C@H](CCC(=O)N(CCNC(=O)CCOCCOCCNC(=O)c2ccc(C(=O)NCCCCC(=O)NCCCC[C@H](NC(=O)N[C@@H](CCC(=O)O)C(=O)O)C(=O)O)cc2)CCNC(=O)CCOCCOCCNC(=O)c2ccc(C(=O)NCCCCC(=O)NCCCC[C@H](NC(=O)N[C@@H](CCC(=O)O)C(=O)O)C(=O)O)cc2)NC(=O)CCCN2C(=O)CC(S)C2=O)C(C)C)cc1)CC3` (stereo partly drawn) [C045], for which the IC50 in the assay with C4-2B cell line was found to be 6.76 nM.

`CC[C@@]1(O)C(=O)OCc2c1cc1n(c2=O)Cc2c-1nc1cc(F)c(C)c3c1c2[C@@H](NC(=O)[C@H](C)NC(=O)[C@@H](NC(=O)[C@H](CCC(=O)NCCOCCOCCNC(=O)c1ccc(C(=O)NCCCCC(=O)NCCCC[C@H](NC(=O)N[C@@H](CCC(=O)O)C(=O)O)C(=O)O)cc1)NC(=O)C1CCN(C(=O)CS)CC1)C(C)C)CC3` [C060] showed an IC50 in the assay on C4-2B cell line of 7.57 nM.

Consider `CC[C@@]1(O)C(=O)OCc2c1cc1n(c2=O)Cc2c-1nc1cc(F)c(C)c3c1c2[C@@H](NC(=O)OCc1ccc(NC(=O)[C@H](C)NC(=O)[C@@H](NC(=O)[C@H](CCC(=O)N[C@H](C(=O)N[C@@H](C)C(=O)NC(=O)[C@H](CCC(=O)NC(c2ccccc2)(c2ccccc2)c2ccccc2)NC(=O)[C@@H]2CCCN2C(=O)[C@@H]2CCCN2C(=O)[C@H](CCCNC(=N)NC(c2ccccc2)(c2ccccc2)c2ccccc2)NC(=O)[C@H](CCCNC(=N)NC(c2ccccc2)(c2ccccc2)c2ccccc2)NC(=O)[C@H](CCCNC(=N)NC(c2ccccc2)(c2ccccc2)c2ccccc2)NC(=O)[C@H](CCC(=O)NC(c2ccccc2)(c2ccccc2)c2ccccc2)NC(=O)[C@H](CCCNC(=N)NC(c2ccccc2)(c2ccccc2)c2ccccc2)NC(=O)[C@H](CCCNC(=N)NC(c2ccccc2)(c2ccccc2)c2ccccc2)NC(=O)[C@H](CCCCNC(=O)OC(C)(C)C)NC(=O)[C@H](CCCCNC(=O)OC(C)(C)C)NC(=O)[C@H](CCCNC(=N)NC(c2ccccc2)(c2ccccc2)c2ccccc2)NC(=O)CNC(=O)OCC2c4ccccc4-c4ccccc42)C(C)C)NC(=O)CCCNC(=O)[C@H](CCCCNC(=O)COCCOCCOCCOCCOCCOCCOCCOCCOCCOC)NC(=O)CCCN2C(=O)C=CC2=O)C(C)C)cc1C(=O)NCCOCCOCCOCCOCCOCCOCCOCCOC)CC3` [compound 570], for which the “in vivo antitumor activity over time” value in assay [1] is on record as “better antitumor activity than the regular GGFG-Dxd conjugate”.

B1: vandortuzumab-C002 (conjugate, chains of the INN, looked up)
VH: EVQLVESGGGLVQPGGSLRLSCAVSGYSITSDYAWNWVRQAPGKGLEWVGYISNSGSTSYNPSLKSRFTISRDTSKNTLYLQMNSLRAEDTAVYYCARERNYDYDDYYYAMDYWGQGTLVTVSS
VL: DIQMTQSPSSLSASVGDRVTITCKSSQSLLYRSNQKNYLAWYQQKPGKAPKLLIYWASTRESGVPSRFSGSGSGTDFTLTISSLQPEDFATYYCQQYYNYPRTFGQGTKVEIK
modifications: drug conjugate C002
As for B1, the “affinity against nature PC-3 cells” value in the assay on PC-3 cells is recorded as “not able to show the affinity at all”. The “affinity against PC-3-4G5 cells” value with PC-3-4G5 cells is “good affinity”. Besides, the “affinity against PC-3-4B9 cells” value in the assay with PC-3-4B9 cells was “had the affinity”. The “affinity against C4-2B cells” value in the assay on C4-2B cells was “better affinity for the C4-2B cells than the naked (unconjugated) antibodies”.

The term IC50 denotes the concentration at which inhibition is half-maximal. A low value points to greater potency.
